In ChEMBL document CHEMBL1122656, “Synthesis and antiviral evaluation of carbocyclic analogues of ribofuranosides of 2-amino-6-substituted-purines and of 2-amino-6-substituted-8-azapurines” (1984):
In brackets after ≈: the same amount, converted by molar mass.

What was measured:
Assay type in all cases: functional
[1] = tested on: HEp-2; experiment: In vitro inhibition of cytopathogenicity induced by HF strain of Herpes Simplex Virus (HSV-1) replicating in human epidermoid carcinoma no.2 (H.Ep-2) cells
[2] = Cytotoxicity to cancer cells (KB cells) in culture was determined and the effective dose that causes 50 % cytotoxicity was reported.; settings: Homo sapiens, Cancer cell lines; read-out: ED50 (the source's name)
[3] = tested on: Mus musculus; experiment: In vivo efficacy against L1210 leukemic cells, inoculated intraperitoneally in mice at schedule - q.d. 1-9. Dose 100 mg/kg; settings: route intraperitoneal
[4] = tested on: HEp-2; experiment: In vitro inhibition of cytopathogenicity induced by Lederle Chorioallantoic strain of vaccinia virus replicating in human epidermoid carcinoma no.2 (H.Ep-2) cells
[5] = tested on: Mus musculus; experiment: In vivo efficacy against L1210 leukemic cells, inoculated intraperitoneally in mice at schedule - day 1. Dose 400 mg/kg; settings: route intraperitoneal
[6] = tested on: Mus musculus; experiment: In vivo efficacy against L1210 leukemic cells, inoculated intraperitoneally in mice at schedule - q.d. 1-9. Dose 100 mg/kg*-toxic; settings: route intraperitoneal
[7] = tested on: Mus musculus; experiment: In vivo efficacy against L1210 leukemic cells, inoculated intraperitoneally in mice at schedule - q.d. 1-9. Dose 200 mg/kg.*-toxic; settings: route intraperitoneal
[8] = tested on: Mus musculus; experiment: In vivo efficacy against L1210 leukemic cells, inoculated intraperitoneally in mice at schedule - q.d. 1-9. Dose 50 mg/kg; settings: route intraperitoneal
[9] = tested on: Mus musculus; experiment: In vivo efficacy against L1210 leukemic cells, inoculated intraperitoneally in mice at schedule - q.d. 1-9. Dose 400 mg/kg.; settings: route intraperitoneal
[10] = tested on: HEp-2; experiment: In vitro inhibition of cytopathogenicity induced by Lederle Chorioallantoic strain of vaccinia virus replicating in human epidermoid carcinoma
[11] = tested on: Mus musculus; experiment: In vivo efficacy against L1210 leukemic cells, inoculated intraperitoneally in mice at schedule - q.d. 1-9. Dose 25 mg/kg; settings: route intraperitoneal
[12] = tested on: Mus musculus; experiment: In vivo efficacy against L1210 leukemic cells, inoculated intraperitoneally in mice at schedule - q.d. 1 Dose 150 mg/kg.*-Diiference in weight change(T-C)by day 5 was -5.6g at 150 mg/kg &[…] at 75 mg/kg
[13] = tested on: Mus musculus; experiment: In vivo efficacy against L1210 leukemic cells, inoculated intraperitoneally in mice at schedule - q.d. 1,5,9. Dose 19 mg/kg; settings: route intraperitoneal
[14] = tested on: Mus musculus; experiment: In vivo efficacy against L1210 leukemic cells, inoculated intraperitoneally in mice at schedule - q.d. 1,5,9. Dose 38 mg/kg; settings: route intraperitoneal
[15] = tested on: Mus musculus; experiment: In vivo efficacy against L1210 leukemic cells, inoculated intraperitoneally in mice at schedule - q.d. 1,5,9. Dose 75 mg/kg*-Diiference in weight change(T-C)by day 5 was -5.6g at 150 mg/kg &[…] at 75 mg/kg
[16] = tested on: Mus musculus; experiment: In vivo efficacy against L1210 leukemic cells, inoculated intraperitoneally in mice at schedule - q.d. 1-9. Dose 19 mg/kg*-toxic; settings: route intraperitoneal
[17] = tested on: Mus musculus; experiment: In vivo efficacy against L1210 leukemic cells, inoculated intraperitoneally in mice at schedule - q.d. 1-9. Dose 38 mg/kg*-toxic; settings: route intraperitoneal
[18] = tested on: Mus musculus; experiment: In vivo efficacy against L1210 leukemic cells, inoculated intraperitoneally in mice at schedule - q.d. 1-9. Dose 9 mg/kg; settings: route intraperitoneal
[19] = tested on: Mus musculus; experiment: In vivo efficacy against L1210 leukemic cells, inoculated intraperitoneally in mice at schedule - q.d. 1. Dose 75 mg/kg*-Diiference in weight change(T-C)by day 5 was -5.6g at 150 mg/kg &[…] at 75 mg/kg

## CSc1nc(N)nc2c1ncn2C1CC(CO)C(O)C1O (stereo not given)
[1]
  Virus rating: 0.1 VR
[2]
  EC50: > 100 µg/mL
[3]
  T/C: 108%

## Nc1nc(Cl)c2ncn(C3CC(CO)C(O)C3O)c2n1 (stereo not given)
[1]
  MIC: 10 µg/mL (≈ 33.4 µM)
  Virus rating: 1.7 VR
[4]
  MIC: 20 µg/mL (≈ 66.7 µM)
  Virus rating: 1.2 VR
[2]
  EC50: > 100 µg/mL
[5]
  T/C: 104%
[6]
  T/C: 85%
[7]
  T/C: 67%
[8]
  T/C: 101%

## CNc1nc(N)nc2c1ncn2C1CC(CO)C(O)C1O (stereo not given)
[1]
  MIC: 320 µg/mL (≈ 1090 µM)
  Virus rating: 1.3 VR
[2]
  EC50: 18 µg/mL (≈ 61.2 µM)

## Nc1nc(S)c2ncn(C3CC(CO)C(O)C3O)c2n1 (stereo not given)
[1]
  Virus rating: 0 VR
[2]
  EC50: 50 µg/mL (≈ 168 µM)
[9]
  T/C: 99%

## Nc1nc(Cl)c2nnn(C3CC(CO)C(O)C3O)c2n1 (stereo not given)
[1]
  MIC: 81 µg/mL (≈ 269 µM)
  Virus rating: 0.9 VR
[10]
  Virus rating: 0.6 VR
[2]
  EC50: 8 µg/mL (≈ 26.6 µM)
[5]
  T/C: 111%

## Nc1nc(N)c2ncn(C3CC(CO)C(O)C3O)c2n1 (stereo not given)
[1]
  MIC: 0.3 µg/mL (≈ 1.07 µM)
  Virus rating: 4.6 VR
[10]
  MIC: 2.3 µg/mL (≈ 8.21 µM)
  Virus rating: 3.8 VR
[2]
  EC50: 19 µg/mL (≈ 67.8 µM)
[6]
  T/C: 70%
[7]
  T/C: 67%
[11]
  T/C: 102%
[8]
  T/C: 89%

## Nc1nc(O)c2nnn(C3CC(CO)C(O)C3O)c2n1 (stereo not given)
[1]
  Virus rating: 0 VR
[2]
  EC50: > 100 µg/mL
[5]
  T/C: 109%

## Nc1nc(N)c2nnn(C3CC(CO)C(O)C3O)c2n1 (stereo not given)
[1]
  MIC: 100 µg/mL (≈ 356 µM)
  Virus rating: 1.4 VR
[2]
  EC50: > 100 µg/mL
[5]
  T/C: 97%

## CSc1nc(N)nc2c1nnn2C1CC(CO)C(O)C1O (stereo not given)
[1]
  Virus rating: 0 VR
[2]
  EC50: > 100 µg/mL
[3]
  T/C: 94%

## Nc1nc(O)c2ncn(C3CC(CO)C(O)C3O)c2n1 (stereo not given)
[1]
  Virus rating: 0 VR
[10]
  Virus rating: 0 VR
[2]
  EC50: > 100 µg/mL
[12]
  T/C: 75%
[13]
  T/C: 94%
[14]
  T/C: 92%
[15]
  T/C: 70%
[16]
  T/C: 83%
[17]
  T/C: 71%
[18]
  T/C: 101%
[19]
  T/C: 88%

## Nc1ncnc2c1ncn2[C@@H]1O[C@H](CO)[C@@H](O)[C@@H]1O [VIDARABINE]
[1]
  MIC: 10 µg/mL (≈ 37.4 µM)
  Virus rating: 2.2 VR
